The text below walks through data of US10947213B1 (Merck Patent GmbH, priority 2015, dated 2021).

pIC50: −log10 of the molar value. Structures can show the parent of a compound that is named as a salt.

For the experiment, the target named is T1, TLR7/NFKb HEK cells (Homo sapiens, UniProt Q9NYK1).
T1 construct: expressed in transfected cells; host or cells: HEK cells (TLR7/NFKb reporter line)
T1 sequence (Q9NYK1 27-1049): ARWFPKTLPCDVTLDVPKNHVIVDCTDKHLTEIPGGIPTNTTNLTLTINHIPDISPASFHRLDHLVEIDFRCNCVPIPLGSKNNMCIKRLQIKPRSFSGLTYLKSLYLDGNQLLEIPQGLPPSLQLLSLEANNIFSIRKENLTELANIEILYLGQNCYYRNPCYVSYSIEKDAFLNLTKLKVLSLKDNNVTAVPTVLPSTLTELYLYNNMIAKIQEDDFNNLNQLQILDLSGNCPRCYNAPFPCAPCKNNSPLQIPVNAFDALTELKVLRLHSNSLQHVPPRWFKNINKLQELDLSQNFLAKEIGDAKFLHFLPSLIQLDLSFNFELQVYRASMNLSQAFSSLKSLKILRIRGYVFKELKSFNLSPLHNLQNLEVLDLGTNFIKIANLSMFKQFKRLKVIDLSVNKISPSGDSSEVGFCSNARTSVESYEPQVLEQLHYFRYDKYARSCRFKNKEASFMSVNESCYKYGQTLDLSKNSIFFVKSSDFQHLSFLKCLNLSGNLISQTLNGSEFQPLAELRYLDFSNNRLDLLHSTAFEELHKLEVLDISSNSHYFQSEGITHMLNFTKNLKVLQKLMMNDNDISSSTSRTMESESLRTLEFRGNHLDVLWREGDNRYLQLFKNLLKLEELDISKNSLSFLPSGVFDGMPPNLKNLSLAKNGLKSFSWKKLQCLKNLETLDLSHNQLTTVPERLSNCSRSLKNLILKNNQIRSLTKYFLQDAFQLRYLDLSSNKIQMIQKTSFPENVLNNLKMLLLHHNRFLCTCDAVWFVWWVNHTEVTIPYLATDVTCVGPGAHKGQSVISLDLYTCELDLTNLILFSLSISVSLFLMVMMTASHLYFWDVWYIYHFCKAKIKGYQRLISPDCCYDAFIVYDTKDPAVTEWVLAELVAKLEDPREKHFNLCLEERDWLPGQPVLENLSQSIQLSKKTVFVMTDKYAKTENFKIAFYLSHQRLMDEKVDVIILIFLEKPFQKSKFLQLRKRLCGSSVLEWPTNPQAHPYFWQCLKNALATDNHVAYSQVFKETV
Briefly: HEK Cell Assay (TLR7/NFKb reporter, Steady-Glo luciferase readout). Type of experiment: cell-based. To be noted: 30 min compound preincubation, then R*48 agonist for 5 hours, read-out: Potency. In a few lines: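 Steady-Glo luminescence after 5 h stimulation with R*48 agonist, following 30 min compound preincubation. Assay run in HEK cells carrying a TLR7/NFKb luciferase reporter, plated at 5000 cells/well and grown 24 h at 37° C (10% CO2) before treatment.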

For `C[C@@H]1CN(c2ccnc3nccnc23)C[C@H](CN2CCN(C)C(C)(C)C2)O1` [Compound 54, (2R,6S)-2-methyl-4-(pyrido[2,3-b]pyrazin-8-yl)-6-((3,3,4-trimethylpiperazin-1-yl)methyl)morpholine], the pIC50 was greater than 6.00. Regarding `N#Cc1ccc(N2CCC(CNC(=O)CN3CCCCC3)CC2)c2cccnc12` [Compound 409, N-[1-(8-Cyano-quinolin-5-yl)-piperidin-4-ylmethyl]-2-piperidin-1-yl-acetamide], the pIC50 is greater than 6.00. For the compound `CC(C(=O)N[C@@H]1C[C@H](C)CN(c2ccc(C#N)c3nccnc23)C1)N1CC(O)C1` (stereo partly drawn) [Compound 271], the pIC50 was greater than 6.00. As for `CC(C)[C@H](O)C(=O)NC1CC(C2CC2)CN(c2ccc(C#N)c3nccnc23)C1` (single isomer, unassigned) [Compound 173], the pIC50 was 5.00 to 6.00.

As to `CCN(CC)CC(=O)NCC1CCN(c2ccc(C#N)c3ncccc23)CC1` [Compound 398, N-[1-(8-Cyano-quinolin-5-yl)-piperidin-4-ylmethyl]-2-diethylamino-acetamide], the pIC50 was greater than 6.00. The same measure for `NC1CN(c2ccc(C(F)(F)F)c3ncccc23)CC(F)(F)C1` (stereo not drawn) [Compound 510, 5,5-Difluoro-1-(8-trifluoromethyl-quinolin-5-yl)-piperidin-3-ylamine]: greater than 6.00; for `O=C(CN1CCOCC1)N[C@H]1C[C@@H](C2CC2)CN(c2ccc(F)c3ncccc23)C1` (racemic) [Compound 367, cis-N-[5-cyclopropyl-1-(8-fluoroquinolin-5-yl)piperidin-3-yl]-2-(morpholin-4-yl)acetamide]: less than 5.00. The same measure for `C[C@H]1C[C@@H](NC(=O)CC2CCN(C)C2)CN(c2ccc(C#N)c3nccnc23)C1` (stereo partly drawn) [Compound 269, N-[(3R,5S)-1-(8-cyanoquinoxalin-5-yl)-5-methylpiperidin-3-yl]-2-(1-methylpyrrolidin-3-yl)acetamide]: greater than 6.00; for `N#Cc1ccc(N2CC(N)CC(F)(F)C2)c2cccnc12` (stereo not drawn) [Compound 423, 5-(5-Amino-3,3-difluoro-piperidin-1-yl)-quinoline-8-carbonitrile hydrochloride]: greater than 6.00; for `CC(C)(C)CC(=O)N[C@H]1C[C@@H](C(F)(F)F)CN(c2ccnc3nccnc23)C1` (relative stereo) [Compound 86, cis-3,3-dimethyl-N-[1-[pyrido[2,3-b]pyrazin-8-yl]-5-(trifluoromethyl)piperidin-3-yl]butanamide]: less than 5.00. On to `N#Cc1ccc(N2CC(N)CC(C(F)(F)F)C2)c2cccnc12` (single isomer, unassigned) [Compound 73], for which the pIC50 was greater than 6.00.

Take `C[C@H]1C[C@@H](NC(=O)CN2CC(N)C2)CN(c2ccc(C(F)F)c3nccnc23)C1` [Compound 365, 2-(3-aminoazetidin-1-yl)-N-[(3R,5S)-1-[8-(difluoromethyl)quinoxalin-5-yl]-5-methylpiperidin-3-yl]acetamide]: the pIC50 was 5.00 to 6.00.

For the compound `C[C@H]1C[C@@H](NC(=O)[C@H](N)c2ccccc2)CN(c2ccc(C#N)c3nccnc23)C1` [Compound 119, (2R)-2-amino-N-[(3R,5S)-1-(8-cyanoquinoxalin-5-yl)-5-methylpiperidin-3-yl]-2-phenylacetamide], the pIC50 is greater than 6.00.

For the compound `C[C@H]1C[C@@H](NC(=O)C(N)C(F)(F)F)CN(c2c(F)cc(C#N)c3nccnc23)C1` (single isomer, unassigned) [Compound 346], the pIC50 is less than 5.00. The same measure for `CC1CC(C(=O)N2CCN(C)CC2)CN(c2ccc(C(F)(F)F)c3ncccc23)C1` (stereo not drawn) [Compound 549, (4-Methyl-piperazin-1-yl)-[5-methyl-1-(8-trifluoromethyl-quinolin-5-yl)-piperidin-3-yl]-methanone]: 5.00 to 6.00. Consider `Cc1cc2c(N3C[C@@H](C)C[C@@H](NC(=O)CO)C3)ccnc2n1C` [Compound 13, N-((3R,5S)-1-(1,2-dimethyl-1H-pyrrolo[2,3-b]pyridin-4-yl)-5-methylpiperidin-3-yl)-2-hydroxyacetamide], for which the pIC50 was less than 5.00. Consider `C[C@H]1C[C@@H](NC(=O)COCC2CCCO2)CN(c2ccc(C#N)c3nccnc23)C1` (stereo partly drawn) [Compound 166, N-[(3R,5S)-1-(8-cyanoquinoxalin-5-yl)-5-methylpiperidin-3-yl]-2-(oxolan-2-ylmethoxy)acetamide], for which the pIC50 is greater than 6.00. Consider `C[C@H]1C[C@@H](NC(=O)CC(C)(C)CN)CN(c2ccc(C(F)F)c3ncccc23)C1` [Compound 315, 4-amino-N-[(3R,5S)-1-[8-(difluoromethyl)quinolin-5-yl]-5-methylpiperidin-3-yl]-3,3-dimethylbutanamide], for which the pIC50 was greater than 6.00. `CC(C)[C@H](O)C(=O)N[C@@H]1C[C@H](C)CN(c2ccnc3nccnc23)C1` [Compound 22, (S)-2-hydroxy-3-methyl-N-((3R,5S)-5-methyl-1-(pyrido[2,3-b]pyrazin-8-yl)piperidin-3-yl)butanamide]: the pIC50 is 5.00 to 6.00. Regarding `CCN(CC)CC(=O)NCC1CCN(c2ccc(C#N)c3ncncc23)CC1` [Compound 395, N-[1-(8-Cyano-quinazolin-5-yl)-piperidin-4-ylmethyl]-2-diethylamino-acetamide], the pIC50 is 5.00 to 6.00.

For the compound `CN(C(=O)CN1CCOCC1)[C@H]1C[C@@H](C2CC2)CN(c2ccc(C(F)(F)F)c3ncccc23)C1` (relative stereo) [Compound 337, cis-N-[5-cyclopropyl-1-[8-(trifluoromethyl)quinolin-5-yl]piperidin-3-yl]-N-methyl-2-(morpholin-4-yl)acetamide], the pIC50 was less than 5.00. As for `C[C@H]1C[C@@H](NC(=O)[C@@H](N)c2ccccc2)CN(c2ccc(C#N)c3nccnc23)C1` [Compound 117, (2S)-2-amino-N-[(3R,5S)-1-(8-cyanoquinoxalin-5-yl)-5-methylpiperidin-3-yl]-2-phenylacetamide], the pIC50 was greater than 6.00. As for `CC(C(=O)N[C@@H]1C[C@H](C)CN(c2ccc(C(F)(F)F)c3nccnc23)C1)N1CCC(O)CC1` (single isomer, unassigned) [Compound 371], the pIC50 is greater than 6.00. In the case of `CC(C)(O)CC(=O)N[C@@H]1C[C@H](C(F)(F)F)CN(c2ccc(C#N)c3ncccc23)C1` (racemic) [Compound 481], the pIC50 was 5.00 to 6.00.

Regarding `CCN(CC)CCNCC1CCN(c2ccnc3cc(C)ccc23)CC1` [Compound 389, N,N-Diethyl-N′-[1-(7-methyl-quinolin-4-yl)-piperidin-4-ylmethyl]-ethane-1,2-diamine], the pIC50 is 5.00 to 6.00. Turning to `CN[C@@H]1C[C@H](C)CN(c2ccc(C(F)(F)F)c3ncccc23)C1` [Compound 451, Methyl-[(3R,5S)-5-methyl-1-(8-trifluoromethyl-quinolin-5-yl)-piperidin-3-yl]-amine hydrochloride], the pIC50 is greater than 6.00. The same measure for `CN1CCN(CCNC(=O)C2CCN(c3ccc(C#N)c4ncccc34)CC2)CC1` [Compound 421, 1-(8-Cyano-quinolin-5-yl)-piperidine-4-carboxylic Acid [2-(4-methyl-piperazin-1-yl)-ethyl]-amide]: greater than 6.00. As to `NC1CN(c2ccc(C(F)(F)F)c3ncccc23)CC(F)(F)C1` (single isomer, unassigned) [Compound 528], the pIC50 is 5.00 to 6.00. The figure for `N#Cc1ccc(N2CC(N)CC(C3CC3)C2)c2nccnc12` (single isomer, unassigned) [Compound 69, 8-(3-amino-5-cyclopropylpiperidin-1-yl)quinoxaline-5-carbonitrile] is 5.00 to 6.00. As to `Cc1ncc(N2C[C@@H](C)C[C@@H](N)C2)c2cccnc12` [Compound 553, (3R,5S)-5-methyl-1-(8-methyl-1,7-naphthyridin-5-yl)piperidin-3-amine], the pIC50 was greater than 6.00.

With `C[C@@H]1C[C@H](C(=O)NCCN2CCN(C)CC2)CN(c2ccc(C#N)c3nccnc23)C1` (relative stereo) [Compound 537, cis-1-(8-Cyano-quinoxalin-5-yl)-5-methyl-piperidine-3-carboxylic acid [2-(4-methyl-piperazin-1-yl)-ethyl]-amide], the pIC50 is greater than 6.00. The figure for `C[C@H]1C[C@@H](NC(=O)CC2C3CC2CN(C)C3)CN(c2ccc(C#N)c3nccnc23)C1` (single isomer, unassigned) [Compound 357] is greater than 6.00.

Consider `N#Cc1ccc(N2CC(N)CC(F)(F)C2)c2nccnc12` (single isomer, unassigned) [Compound 75], for which the pIC50 was greater than 6.00.
